Here are results for one compound from patent US20130338574A1, “ORAL MEDICINAL COMPOSITION FOR PATIENTS UNDERGOING PERITONEAL DIALYSIS AND METHOD FOR USING SAME” (TOKAI UNIVERSITY EDUCATIONAL SYSTEM, priority 2010, published 2013).

Test [1] deals with dicarbonyl compounds (3-deoxyglucosone) in the intraperitoneal fluid. In words: 3-deoxyglucosone in intraperitoneal fluid of uremic rat models, neutral peritoneal dialysis fluid (Experimental Example 3). The format is in vivo, rats. Particulars: oral 30 mg/rat/day, 7 days. From the text: Kidney subtotal excision rats with chronic renal failure (uremic rat models) were produced in the same manner as in Experimental Example 2. Distilled water for injection was orally administered compulsorily to Group 1 (control group) (n=3) once a day, and the pyridoxamine salt aqueous solution was orally administered compulsorily to Group 2 (pyridoxamine salt orally administered group) once a day. On the 6th day of administration, after distilled water for injection and the pyridoxamine salt aqueous solution were orally administered, respectively, to Groups 1 and 2, 20 ml of a neutral peritoneal dialysis fluid (pH 6.5 to 7.5) to be mixed before use (trade name: Dianeal (registered trademark)-N PD-4-1.5 mixture; Baxter Limited) (Table 1) was injected intraperitoneally to both groups, in place of the acid peritoneal dialysis fluid administered in Experimental Example 2. As explained in Experimental Example 1, the peritoneal dialysis fluid was composed of an upper-compartment solution and a lower-compartment solution separated by a partition, and both solutions were mixed immediately before being injected into the peritoneal cavity. […] The concentration of dicarbonyl compounds (3-deoxyglucosone) in the intraperitoneal fluid of each group was measured by HPLC in the same manner as in Experimental Example 2.

The test system of test [2] is pentosidine in the peritoneal tissue. In words: Peritoneum protective effect: pentosidine in peritoneal tissue of uremic rat models (Experimental Example 4). The test is classed as in vivo, rats. Particulars: oral 30 mg/rat/day, 7 days. How it is done:
The protective effect of oral administration of a pyridoxamine salt on the deterioration of the peritoneum caused by peritoneal dialysis was evaluated. More specifically, uremic rat models were subjected to intraperitoneal administration of a peritoneal dialysis fluid together with oral administration of a pyridoxamine salt, and the concentration of pentosidine in the peritoneal tissue, which was an indicator of tissue degeneration caused by enhanced carbonyl stress, was measured. Pentosidine is an advanced glycation/lipoxidation end product (AGE). Kidney subtotal excision rats were produced in the same manner as in Experimental Example 2. […] The sample for pentosidine measurement prepared in the above manner was subjected to HPLC under the following conditions, and pentosidine contained in the peritoneum was quantitatively analyzed. The quantitative analysis was performed using a standard calibration curve previously prepared by measurement under the following HPLC conditions using standard solutions of synthetic pentosidine of known concentrations. […] Stationary phase: C18 column (Puresil, 4.6×250 mm, 5 μm; Nihon Waters K.K.) Flow rate: 0.8 mL/min Detection: Fluorescence detection (excitation wavelength: 335 nm/absorption wavelength: 385 nm) (fluorescence detector: Shimadzu Corporation) Sample volume: 20 μL

For `Cc1ncc(CO)c(CN)c1O.Cl.Cl` [pyridoxamine dihydrochloride, Pyridoxamine dihydrochloride], in test [1] (neutral peritoneal dialysis fluid), the “3-deoxyglucosone concentration in the peritoneal cavity relative to control group” value is listed as “less than one-half”. Besides, the “3-deoxyglucosone concentration in intraperitoneal fluid” value in test [1] (neutral peritoneal dialysis fluid (pH 6.5 to 7.5) Dianeal-N PD-4-1.5 mixture, 20 ml i.p., control group 23.4) was 10.3 µg/mL. In addition, the “pentosidine concentration in the peritoneum tissue compared with control group” value in test [2] (acid peritoneal dialysis fluid) is listed as “significantly lower”. Further, in test [2] (per mg of peritoneum (wet mass), acid peritoneal dialysis fluid 20 ml i.p., control group 0.065), the “Pentosidine concentration in peritoneal tissue” value is listed as 0.022 pmol/mg.
